Test results as given in patent US20150005347A1, “NITROGEN-CONTAINING HETEROCYCLIC DERIVATIVE HAVING 2-IMINO GROUP AND PEST CONTROL AGENT INCLUDING THE SAME” (MEIJI SEIKA PHARMA CO., LTD., priority 2012, published 2015).

Experiments:
Type in all cases: in vivo
[1] = system: Aphis gossypii; assay: Pest control test of Aphis gossypii, cucumber leaf disk foliar spray; details: for mortality at 100 ppm / mortality at 500 ppm: Aphis gossypii, 72 h, first instar larvae, three days after release; for mortality at 100 ppm: foliar treatment at 100 ppm, read-out: mortality of larvae; for mortality at 500 ppm: foliar treatment at 500 ppm; for % Mortality, Test Example3 Aphis gossypii: foliar treatment
Method: Test Example 3 Pest Control Test of Aphis gossypii
(§1) A leaf disk having a diameter of 2.0 cm was cut out from a cucumber in pot culture, and a drug solution of the compound of the present invention at a predetermined concentration, which had been prepared so as to be a 50% acetone water (0.05% Tween20 available), was sprayed to the leaf disk. After an air drying process, first instar larvae were released thereto. Thereafter, the larvae were left to stand in a thermostatic chamber (16 hours of light period-8 hours of dark period) at 25° C. […] Test in duplicate.
(§2) Mortality of larvae(%)={number of dead larvae/(number of survived larvae+number of dead larvae)}×100

[2] = system: Plutella xylostella; assay: Plutella xylostella control test, cabbage leaf disk foliar spray; details: for mortality at 100 ppm / mortality at 500 ppm: Plutella xylostella, 72 h, second instar larvae, three days after release, read-out: mortality of larvae; for mortality at 100 ppm: foliar treatment at 100 ppm; for mortality at 500 ppm: foliar treatment at 500 ppm; for % Mortality, Test Example1 Plutella xylostella: foliar treatment
Method: Test Example 1 Plutella xylostella Control Test
as §1, with “5.0” for “2.0”, “cabbage” for “cucumber”, “second” for “first”
mortality larvae(%)={number of dead larvae/(number of survived larvae+number of dead larvae)}×100

[3] = system: Laodelphax striatella; assay: Pest control test of Laodelphax striatella, foliar spray on rice seedling; details: Laodelphax striatellus, 144 h; foliar treatment at 1.25 ppm; second instar larvae; six days after release; read-out: mortality of larvae
Method: Test Example 6 Pest Control Test of Laodelphax striatella
as §1, with “A” for “A leaf disk having a diameter of 2.0 cm was cut out from a cucumber in pot culture, and a”, “was foliar” for “was”, “a rice seedling in pot culture.” for “the leaf disk.”, “second” for “first”
as §2

[4] = system: Musca domestica; assay: Pest control test of Musca domestica adults, sucrose pledget; details: 50 ppm in 40% sucrose liquid; four days after release
Method: Test Example 21 Pest Control Test of Musca domestica
A drug solution of the compound of the present invention, which had been adjusted to be 50 ppm with a 40% sucrose liquid, was adsorbed on a pledget, and the pledget was put into a vial. Two adults reared indoors were released thereto. Thereafter, the adults were left to stand indoors at room temperature of 25° C. […] When two adults were all agonized in death, it was judged to be effective.

[5] = system: Frankliniella occidentalis; assay: Pest control test of Frankliniella occidentalis, kidney bean leaf disk foliar spray; details: for % Mortality, Test Example7 Frankliniella occidentalis: foliar treatment, 100 ppm
Source text: Test Example 7 Pest Control Test of Frankliniella occidentalis
as §1, with “2.8” for “2.0”, “kidney bean” for “cucumber”
as §2

[6] = system: Spodoptera litura; assay: Pest control test against Spodoptera litura, cabbage leaf disk foliar spray; details: for % Mortality, Test Example2 Spodoptera litura: foliar treatment, 100 ppm
Method: Test Example 2 Pest Control Test Against Spodoptera litura
as §1, with “5.0” for “2.0”, “cabbage” for “cucumber”, “third” for “first”
as §2

[7] = system: Nilaparvata lugens; assay: Pest control test of Nilaparvata lugens, soil irrigation treatment; details: soil irrigation treatment
Method: Test Example 12 Pest Control Test of Nilaparvata lugens
(§3) A rice seedling in pot culture was subjected to soil irrigation treatment with a drug solution of the compound of the present invention at a predetermined concentration, which had been prepared so as to be a 10% acetone water. Three days after the treatment, ten second instar larvae of Nilaparvata lugens were each released thereto. Thereafter, the larvae were left to stand in a thermostatic chamber (16 hours of light period-8 hours of dark period) at 25° C. […] The test was performed in duplicate.
as §2

[8] = system: Laodelphax striatella; assay: Pest control test of Laodelphax striatella, soil irrigation treatment of rice seedling; details: soil irrigation treatment
Source text: <Soil Irrigation Treatment Test>
Test Example 10 Pest Control Test of Laodelphax striatellua
as §3, with “Laodelphax striatella” for “Nilaparvata lugens”
as §2

[9] = system: imidacloprid susceptible populations of Nilaparvata lugens; assay: Soil irrigation test, imidacloprid susceptible populations of Nilaparvata lugens; details: Rate 0.05 mg/pot
Method: as §3, with “Three days after the treatment, ten second instar larvae of Nilaparvata lugens were each released thereto.” left out
as §2
Further, for comparison, the test against some population of Nilaparvata lugens which is highly susceptible to imidacloprid was performed by the same method as described above, and the results thereof are shown in Table 43.
(§4) Further, for the origin of test pests, bugs collected outdoors within the Kumamoto prefecture in 2007 as the drug resistant Nilaparvata lugens, and bugs collected within the Kagoshima prefecture and then successively reared indoors for a long time as the imidacloprid susceptible populations of Nilaparvata lugens were used.

[10] = system: Trigonotylus caelestialium; assay: Pest control test of Trigonotylus caelestialium, wheat seedling dipping
Source text: Test Example 8 Pest Control Test of Trigonotylus caelestialium
Wheat seedling leaves and stems four days after the dissemination of seedlings were dipped for 30 seconds in a drug solution of the compound of the present invention at a predetermined concentration, which had been prepared so as to be a 50% acetone water (0.05% Tween20 available). After an air drying process, the wheat seedling leaves and stems were placed into a glass tube, and two second instar larvae of Trigonotylus caelestialium were released to the same glass tube. After the larvae were released, the tube was lidded to leave the larvae to stand in a thermostatic chamber at 25° C. In order to supply water to the wheat during the test, water was given to the wheat from the bottom of the glass tube.
as §2

[11] = system: Nilaparvata lugens exhibiting drug resistance to imidacloprid; details: soil irrigation; for Insecticidal effects against Nilaparvata lugens (mortality of larvae %), Drug resistant populations three days after the treatment: Rate 0.05 mg/pot; for insecticidal effects against drug resistant Nilaparvata lugens: imidacloprid-resistant; for mortality of larvae against drug resistant populations compared with susceptible populations of Nilaparvata lugens: imidacloprid-resistant vs susceptible
Method: Test Example 18 Pest Control Test of Drug-Resistant Nilaparvata lugens
as §3, with “Three days after the treatment, ten second instar larvae of Nilaparvata lugens were each released thereto.” left out
as §2, §4

| Structure (SMILES) | mortality at 100 ppm [1] [%] | mortality at 500 ppm [1] [%] | mortality at 100 ppm [2] [%] | mortality at 500 ppm [2] [%] | mortality at 1.25 ppm [3] [%] | activity against adults (effective when two adults were all agonized in death) [4] | % Mortality, Test Example3 Aphis gossypii ([1]; 1.25 ppm) [%] | % Mortality, Test Example3 Aphis gossypii ([1]; 5 ppm) [%] | % Mortality, Test Example1 Plutella xylostella ([2]; 20 ppm) [%] | % Mortality, Test Example1 Plutella xylostella ([2]; 100 ppm) [%] | % Mortality, Test Example7 Frankliniella occidentalis [5] [%] | % Mortality, Test Example 12 Nilaparvata lugens ([7]; 0.01 mg/pot) [%] | % Mortality, Test Example 12 Nilaparvata lugens ([7]; 0.05 mg/pot) [%] | % Mortality, Test Example 10 Laodelphax striatella ([8]; 0.005 mg/pot) [%] | % Mortality, Test Example 10 Laodelphax striatella ([8]; 0.01 mg/pot) [%] | % Mortality, Test Example 10 Laodelphax striatella ([8]; 0.05 mg/pot) [%] | Insecticidal effects against Nilaparvata lugens (mortality of larvae %), Susceptible populations three days after the treatment [9] [%] | % Mortality, Test Example8 Trigonotylus caelestialium ([10]; 10 ppm) [%] | % Mortality, Test Example2 Spodoptera litura [6] [%] | Insecticidal effects against Nilaparvata lugens (mortality of larvae %), Drug resistant populations three days after the treatment [11] [%] | further results |
| --- | --- | --- | --- | --- | --- | --- | --- | --- | --- | --- | --- | --- | --- | --- | --- | --- | --- | --- | --- | --- | --- |
| CN=C(/N=c1\ccccn1Cc1ccc(Cl)nc1)C(F)(F)F [Compound 1-42, N-[1-((6-chloropyridin-3-yl)methyl)pyridin-2(1H)-ylidene]-2,2,2-trifluoro-N′-methylacetimidamide] | ≥ 80 | ≥ 80 | ≥ 80 | ≥ 80 | ≥ 80 | all the adults are agonized in death | – | – | – | – | – | – | – | – | – | – | – | – | – | – | – |
| ON=C(/N=c1\ccccn1Cc1ccc(Cl)nc1)C(F)(F)F [Compound 1-499, N-[1-((6-chloropyridin-3-yl)methyl)pyridin-2(1H)-ylidene]-2,2,2-trifluoro-N′-hydroxyacetimidamide] | ≥ 80 | ≥ 80 | ≥ 80 | ≥ 80 | ≥ 80 | – | – | – | – | – | – | – | – | – | – | – | – | – | – | – | mortality at 500 ppm ([5]; Frankliniella occidentalis, 72 h, foliar treatment at 500 ppm, first instar larvae, three days after release, read-out: mortality of larvae): ≥ 80%; mortality at 500 ppm ([6]; Spodoptera litura, 72 h, foliar treatment at 500 ppm, third instar larvae, three days after release, read-out: mortality of larvae): ≥ 80% |
| O=C(ON=C(/N=c1\ccccn1Cc1ccc(Cl)nc1)C(F)(F)F)c1ccccc1 [Compound 1-519, N-(benzoyloxy)-N-[1-((6-chloropyridin-3-yl)methyl)pyridin-2(1H)-ylidene]-2,2,2-trifluoroacetimidamide] | ≥ 80 | ≥ 80 | ≥ 80 | ≥ 80 | ≥ 80 | – | – | – | – | – | – | – | – | – | – | – | – | – | – | – | – |
| FC(F)(F)C(=S)N=c1ccccn1Cc1ccc(Br)nc1 [Compound 4-20] | – | – | – | – | – | all the adults are agonized in death | 100 | 100 | 70 | 100 | 60 | 96 | 100 | 35 | 100 | 100 | 95 | 100 | 20 | 100 | % Mortality, Test Example3 Aphis gossypii ([1]; 100 ppm): 100%; % Mortality, Test Example8 Trigonotylus caelestialium ([10]; 2 ppm): 33%; % Mortality, Test Example8 Trigonotylus caelestialium ([10]; 50 ppm): 100%; insecticidal effects against drug resistant Nilaparvata lugens [11]: high insecticidal effects; mortality of larvae against drug resistant populations compared with susceptible populations of Nilaparvata lugens [11]: equivalent mortality of larvae |
| Fc1cc(Cn2ccccc2=NC(=S)C(F)(F)F)cnc1Cl [Compound 5-20] | – | – | – | – | – | all the adults are agonized in death | 55 | 100 | 100 | 100 | 50 | 90 | 100 | 26 | 52 | 95 | 91 | 17 | 60 | 100 | % Mortality, Test Example1 Plutella xylostella ([2]; 5 ppm): 20%; insecticidal effects against drug resistant Nilaparvata lugens [11]: high insecticidal effects; mortality of larvae against drug resistant populations compared with susceptible populations of Nilaparvata lugens [11]: equivalent mortality of larvae |
